Experimental data reported in article PMC6753678, “Fueling Open Innovation for Malaria Transmission-Blocking Drugs: Hundreds of Molecules Targeting Early Parasite Mosquito Stages” (Frontiers in Microbiology, 2019).

Tested on: P. berghei ookinete development
Settings: for % inhibition, Replicate A / % inhibition, Replicate B: primary screen at 1 μM; for IC50: read-out: Pb Ookinete development assay IC50, dose response confirmation

## COc1ccc(Nc2nc(C)cc(NC3CCCC3)n2)cc1 [TCMDC-133465]
  % inhibition, Replicate A: 51.72%
  % inhibition, Replicate B: 31.38%

## Cc1cc(Nc2cccc(C#N)c2)nc(Nc2ccccc2C)n1 [TCMDC-133471]
  % inhibition, Replicate A: 56.49%
  % inhibition, Replicate B: 36.05%

## O=C(Nc1cccc(C(F)(F)F)c1)c1cccc(S(=O)(=O)NCC2CCCN2CC2CCCCC2)c1.O=C(O)C(F)(F)F (stereo not drawn) [TCMDC-133687]
  % inhibition, Replicate A: 11.95%
  % inhibition, Replicate B: 57.11%

## Cc1cccc2nc(-c3ccc(-c4cccc(CN5CCCC(N)C5)c4)s3)[nH]c12.O=C(O)C(F)(F)F (stereo not drawn) [TCMDC-133874]
  % inhibition, Replicate A: 50.71%
  % inhibition, Replicate B: 12.43%

## COc1ccc(-c2cc(C(=O)Nc3ccc4[nH]c(-c5ccccc5)nc4c3)[nH]n2)cc1.O=C(O)C(F)(F)F [TCMDC-134399]
  % inhibition, Replicate A: 46.43%
  % inhibition, Replicate B: 56.04%

## COc1ccccc1-c1cccc(CNC2CCN(CC3Cn4c(=O)ccc5ccc(F)c3c54)CC2)c1.O=C(O)C(F)(F)F (stereo not drawn) [TCMDC-134411]
  % inhibition, Replicate A: 72.27%
  % inhibition, Replicate B: 57.51%

## COc1ccc2nccc(N3CCC(NCCNCc4ccc5c(n4)NC(=O)CS5)C3)c2n1.Cl (stereo not drawn) [TCMDC-134649]
  % inhibition, Replicate A: 18.73%
  % inhibition, Replicate B: 51.52%

## O=C(NCc1cccs1)[C@H](Cc1ccccc1)Nc1ccnc(NCC2CCCCC2)n1.O=C(O)C(F)(F)F [TCMDC-134708]
  % inhibition, Replicate A: 21.89%
  % inhibition, Replicate B: 53.00%

## COc1cc(OC)cc(-c2nn(-c3ccc([N+](=O)[O-])cc3C#N)c(=S)n2CC2CCCO2)c1 (stereo not drawn) [TCMDC-134716]
  % inhibition, Replicate A: 44.85%
  % inhibition, Replicate B: 53.94%
  IC50: 5.46 µM

## N#Cc1cc([N+](=O)[O-])ccc1-n1nc(-c2cccc(Cl)c2)n(Cc2ccco2)c1=S [TCMDC-134717]
  % inhibition, Replicate A: 64.43%
  % inhibition, Replicate B: 77.59%

## COc1ccccc1CCNc1nc(C)cc(N[C@@H](Cc2ccccc2)C(=O)Nc2ccccc2)n1.O=C(O)C(F)(F)F [TCMDC-134804]
  % inhibition, Replicate A: 57.50%
  % inhibition, Replicate B: 38.80%

## CN(Cc1ccccc1)C1CCN(c2cc(NC(=O)c3cccc(F)c3)ccn2)CC1.O=C(O)C(F)(F)F [TCMDC-135000]
  % inhibition, Replicate A: 52.34%
  % inhibition, Replicate B: 57.11%

## Nc1ncnc2cc(-c3cccc(S(N)(=O)=O)c3)sc12 [TCMDC-135294]
  % inhibition, Replicate A: 103.63%
  % inhibition, Replicate B: 97.06%

## Cc1[nH]c(C)c(-c2cccc(-c3ccc(OC(F)(F)F)cc3)c2)c(=O)c1Br [TCMDC-135303]
  % inhibition, Replicate A: 52.85%
  % inhibition, Replicate B: 65.81%

## COc1ccc2nc(-c3cc(-c4ccc(NC(=O)CN5CCOCC5)cc4)cnc3N)[nH]c2c1 [TCMDC-135373]
  % inhibition, Replicate A: 111.93%
  % inhibition, Replicate B: 79.71%

## COc1cc(C(=O)N2CCOC(CCN3CCC(c4ccc(Cl)cc4)CC3)(c3ccc(Cl)c(Cl)c3)C2)cc(OC)c1OC (stereo not drawn) [TCMDC-135566]
  % inhibition, Replicate A: 63.32%
  % inhibition, Replicate B: 35.61%

## CS(=O)(=O)Cc1ccc(Nc2nccc(-c3c(-c4cccc(NC(=O)c5c(F)cccc5F)c4)nn4ccccc34)n2)cc1 [TCMDC-135669]
  % inhibition, Replicate A: 21.89%
  % inhibition, Replicate B: 53.61%

## Cl.O=C(CC1CCCC1)N(CC1CCN(Cc2ccc(C(F)(F)F)cc2)CC1)c1ccc(N2CCOCC2)c(F)c1 [TCMDC-135855]
  % inhibition, Replicate A: 65.53%
  % inhibition, Replicate B: 32.88%

## O=C(Nc1ccc(Cl)cc1)N(CC1CC2CCC(C1)N2Cc1ccc(C(F)(F)F)cc1)c1ccc(N2CCOCC2)c(F)c1 (stereo not drawn) [TCMDC-135859]
  % inhibition, Replicate A: 55.58%
  % inhibition, Replicate B: 25.24%

## O=C(/C=C/c1ccc(Cl)c(Cl)c1)NCCCCCN1CCCN(C(=O)Nc2cc(Cl)nc(Cl)c2)CC1 [TCMDC-135888]
  % inhibition, Replicate A: 61.66%
  % inhibition, Replicate B: 48.73%

## Cc1nc2ccc(-c3ccc(OC(F)(F)F)cc3)cc2c(O)c1C#N [TCMDC-136129]
  % inhibition, Replicate A: 117.05%
  % inhibition, Replicate B: 93.07%

## Cc1[nH]cc(Br)c(=O)c1-c1ccc(Oc2ccc(OC(F)(F)F)cc2)cc1 [TCMDC-136197]
  % inhibition, Replicate A: 35.07%
  % inhibition, Replicate B: 51.32%

## CCc1ccc(NC(=O)c2ccc(CN3CCCN(CC4CCCCC4)CC3)cc2)cc1.O=C(O)C(F)(F)F [TCMDC-136437]
  % inhibition, Replicate A: 48.61%
  % inhibition, Replicate B: 52.92%

## CC(C)COc1ccc(Cl)cc1Cc1ccc(-c2nc3cnc4ccccc4c3[nH]2)o1 [TCMDC-136650]
  % inhibition, Replicate A: 61.46%
  % inhibition, Replicate B: 37.55%

## Cc1cnc(C(=O)Nc2cccc(-c3ccc(-c4nc5cc(C(F)(F)F)ccc5[nH]4)s3)c2)cn1 [TCMDC-137028]
  % inhibition, Replicate A: 1.65%
  % inhibition, Replicate B: 57.27%

## Cn1ncc2ccc(Nc3nccc(-c4ccc5c(c4)c(N)nn5C)n3)cc21 [TCMDC-137049]
  % inhibition, Replicate A: 55.92%
  % inhibition, Replicate B: 51.61%

## Cc1nc2ccccc2c(O)c1-c1ccc(Cl)cc1 [TCMDC-137172]
  % inhibition, Replicate A: 27.10%
  % inhibition, Replicate B: 52.76%

## Cc1nc2nc(N)nc(N)c2c(C)c1Cc1ccccc1I.Cl [TCMDC-137243]
  % inhibition, Replicate A: 8.94%
  % inhibition, Replicate B: 52.96%

## CCc1cc2c3c(N)nc(N)nc3ccc2n1C(CC)CC [TCMDC-137309]
  % inhibition, Replicate A: 48.79%
  % inhibition, Replicate B: 56.84%

## CC(C)n1c(C(C)(C)C)cc2c3c(N)nc(N)nc3ccc21 [TCMDC-137311]
  % inhibition, Replicate A: 95.58%
  % inhibition, Replicate B: 90.85%
  IC50: 0.634 µM

## CNCCN(C)C(=O)Oc1c(Cl)c(C)nc(C)c1-c1ccc(Oc2ccc(OC(F)(F)F)cc2)cc1.Cl [TCMDC-137384]
  % inhibition, Replicate A: 31.42%
  % inhibition, Replicate B: 56.87%

## Cc1[nH]c(C)c(-c2ccc(Oc3cccc(Cl)c3)cc2)c(=O)c1Cl [TCMDC-137395]
  % inhibition, Replicate A: 115.83%
  % inhibition, Replicate B: 119.38%

## Cc1[nH]c(C)c(-c2ccc(S(=O)(=O)c3ccc(Cl)cc3)cc2)c(=O)c1Cl [TCMDC-137412]
  % inhibition, Replicate A: 78.54%
  % inhibition, Replicate B: 115.81%

## Cc1nc(C)c(-c2ccc(C(=O)c3ccccc3)cc2)c(O)c1Br [TCMDC-137419]
  % inhibition, Replicate A: 112.31%
  % inhibition, Replicate B: 126.66%

## CCN1CCN(CCCNc2c3ccc(Cl)cc3nc3ccc(OC)cc23)CC1.Cl [TCMDC-137586]
  % inhibition, Replicate A: 79.33%
  % inhibition, Replicate B: 90.04%

## CC=Cc1cc(Cc2c[nH]c(=N)[nH]c2=N)cc(CCC)c1OC [TCMDC-137634]
  % inhibition, Replicate A: 54.07%
  % inhibition, Replicate B: 40.96%

## Cl.N=C(N)NN=Cc1cc2ccccc2c2ccccc12 [TCMDC-137671]
  % inhibition, Replicate A: 63.22%
  % inhibition, Replicate B: 44.77%

## CCCCCc1cnc2nc(N)nc(N)c2c1C.Cl [TCMDC-137717]
  % inhibition, Replicate A: 60.03%
  % inhibition, Replicate B: 27.06%

## CC(CO)(CO)NCc1cc2ccc3ccsc3c2c2ccccc12.CS(=O)(=O)O [TCMDC-137753]
  % inhibition, Replicate A: 48.80%
  % inhibition, Replicate B: 68.87%

## CC(C)(C)c1ccc(Cc2cccc3nc(N)nc(N)c23)cc1 [TCMDC-137821]
  % inhibition, Replicate A: 61.67%
  % inhibition, Replicate B: 24.79%

## CC(C)n1ncc2c3c(N)nc(N)nc3ccc21 [TCMDC-137866]
  % inhibition, Replicate A: 87.47%
  % inhibition, Replicate B: 39.71%
